Source: article doi:10.1101/2025.11.25.689777, “NanoBRET Tracer Development for Class I Bromodomain Target Engagement in Live Cells” (bioRxiv, 2025)
Where two headings read alike, the source gives them in different places. One block for each compound: values may come before it.

How the values were obtained:
[1] = target: T1, Nluc-CECR2 (Homo sapiens, UniProt Q9BXF3); assay: Competition NanoBRET on full-length Nluc-CECR2 with MS-1 in HEK293T cells; type: cell-based
T1 construct: MS-1 was titrated against the N-terminal full length Nluc-CECR2; host or cells: HEK293T
Description: MS-1 was titrated against the N-terminal full length Nluc-CECR2.
HEK293T Cell Culture and Transfection
(§1) HEK293T cells were cultured in DMEM, 10% FBS, 5% penicillin-streptomycin and incubated at 37 °C with 5% CO 2. The NanoBRET assay was executed based on the Promega NanoBRET TE 590 Dyes technical protocol. HEK293T cells (200,000 cells/mL) were transiently transfected with each target-NanoLuc fusion vector. A 10 μg/mL solution of lipid:DNA complexes containing each fusion vector were prepared with 9.0 μg/mL of transfection carrier DNA (Promega), 1.0 μg/mL of target-NanoLuc fusion vector DNA
(§2) (Promega), and 1 mL of Opti-MEM I. FuGENE HD Transfection Reagent (Promega) was added at a concentration of 30 μL per mL of DNA mixture. The lipid:DNA complex mixture was inverted five times and allowed to incubate for 20 minutes at room temperature.
(§3) Lipid:DNA complex was then added to HEK293T cells in a 1:20 lipid:DNA complex to cells ratio. The subsequent mixture was inverted and dispensed into sterile tissue culture flasks at a density between 55,000 and 80,000 cells/cm 2. The cells were incubated for 20 – 30 hours at 37 °C, 5% CO 2. Following incubation, the transfected cells were then adjusted to a density of 200,000 cells/mL in Opti-MEM I.
General NanoBRET Assay Protocol […]
(§4) BPTF-BRD BRET assays were conducted using a final MS-1 concentration of 0.5 μM, and PCAF, GCN5, and CECR2 used a final MS-1 concentration of 1 μM. […] BRET was then measured in a Tecan Spark plate reader following a 30 second orbital shake with an amplitude of 1 mm and frequency of 510 rpm. Luminescence was measured using the luminescence […]
(§5) DMSO control wells with no tracer and no inhibitor for background correction as well as control wells with tracer and no inhibitor to determine the maximal assay window. For both tracer and inhibitor titration plots, a BRET ratio for each concentration was calculated as acceptor response divided by donor response. […]

[2] = design: method as in PMID 34146702; details: reported PAMPA data; cited from earlier work
[3] = target: T2, BPTF-BRD-Nluc (Homo sapiens, UniProt Q12830); assay: Competition NanoBRET target engagement, inhibitors vs MS-1 tracer on BPTF-BRD-Nluc in HEK293T cells; details: for inhibition of the BPTF-BRD in NanoBRET titration: BPTF-BRD-Nluc, 0.5 μM MS-1
Description: One assay which can be used to determine bromodomain inhibitor engagement in live cells is known as NanoBRET based on bioluminescent resonance energy transfer. NanoBRET requires a nanoluciferase (Nluc) enzyme to be fused to a protein of interest at either the N- or C-terminus of the protein and expressed in cells. Secondly, a small molecule tracer must be developed which contains the protein ligand, linker, and fluorophore. […] The ligand binds to the protein, and the BODIPY fluorophore has a structural requirement to be in proximity of less than 10 nm to the Nluc enzyme. Finally, when the Nluc substrate furimazine is added, Nluc oxidatively converts the substrate into furimamide, CO2, and light.[7],[8] The energy from the bioluminescence can be transferred to the BODIPY fluorophore leading to the BRET signal. When unlabeled bromodomain inhibitors are added, the tracer is displaced resulting in a dose-dependent reduction in BRET (Figure 1A).
MS-1 was next assessed for its utility in a competition-based NanoBRET experiment for the determination of live cell bromodomain engagement.
HEK293T Cell Culture and Transfection
as §1, §2, §3
General NanoBRET Assay Protocol
BRET assays were performed using white, 384-well tissue-culture-treated plates (Corning HEK293T cells were plated at 7 x 10^3 cells per well. Stock DMSO solutions of each novel BRET tracer to be tested were diluted in Tracer Dilution Buffer (Promega) to achieve a 20X concentration by adding 4:1 Tracer Dilution Buffer to 1 part 100X tracer.
BPTF-BRD BRET assays were conducted using a final MS-1 concentration of 0.5 μM, and PCAF, GCN5, and CECR2 used a final MS-1 concentration of 1 μM. Stock DMSO solutions of inhibitors were diluted to a 1,000X concentration in 100% DMSO and subsequently dissolved to a final 10X concentration in Opti-MEM. Upon addition of the tracer and inhibitor, the cells were incubated for 2 hours at 37 °C, 5% CO 2.

[4] = legend calls it literature permeability data; cited from earlier work
[5] = target: T3, BPTF-BRD (Homo sapiens, UniProt Q12830); details: ITC; cited from earlier work
[6] = target: T3, BPTF-BRD; design: method as in PMID 34375106; details: read-out: Lit. Values: BRET EC50; cited from earlier work
[7] = known from the literature; cited from earlier work
[8] = target: T3, BPTF-BRD; assay: In vitro AlphaScreen competitive inhibition; type: biochemical; details: for IC50: in vitro, BPTF-BRD
[9] = Caco-2 cell-based permeability assay; type: in vitro ADME; details: human, Caco-2, pH 7.4, 2 h at 37 °C
Description: Figure S6. MS-1 titration against Nluc-CECR2 in the presence of either DMSO (purple) or
compound 4 (black) at 100 μM.
Caco-2 Cell-Based Permeability Assay
The Caco-2 permeability assay was conducted as previously described
(PMID: 36793425). Briefly, Caco-2 cells were maintained at 37 °C in a humidified
incubator with 5% CO2, cultured in MEM supplemented with 10% FBS, 100 units/ml of
penicillin, and 100 μg/ml of streptomycin in 75 cm 2 flasks. Cells were seeded onto 96-well
Transwell inserts at a density of 0.165×10^5 cells/insert and cultured for an additional 7
days. Monolayers were washed twice with HBSS/HEPES (10 mM, pH 7.4) before starting
the permeability assay. To initiate the assay, a 10 μmol/L solution of each test compound
was added to either the apical (A) or basolateral (B) side of the inserts. The monolayers
were incubated for 2 h at 37 °C. Samples were collected from both compartments and
compound concentrations were measured by UPLC/MS (Waters; Milford, MA). All
compounds were tested in triplicates.
The apparent permeability coefficient (Papp, cm/s) of each compound in the A→B (or
B→A) direction was calculated using the equation: […]
where dQ/dt is the flux (μmol/s), A is the surface area (cm 2), and C0 is the initial
Chromatographic separation was performed on a Waters Acquity UPLC system coupled
to an SQ mass spectrometer. […]
recording was used for quantification of each compound.

[10] = target: T4, PCAF-Nluc (Homo sapiens, UniProt Q92831); assay: Competition NanoBRET on full-length PCAF-Nluc with MS-1 in HEK293T cells; type: cell-based
T4 construct: two constructs of full-length PCAF containing either N- or C-terminal Nluc; host or cells: HEK293T
Description: First, engagement of MS-1 with full-length PCAF was investigated. MS-1 was titrated against two constructs of full-length PCAF containing either N- or C-terminal Nluc to determine the optimal position of the Nluc enzyme.
HEK293T Cell Culture and Transfection
as §1, §2, §3
General NanoBRET Assay Protocol […]
as §4, §5

[11] = target: T5, GCN5-Nluc (Homo sapiens, UniProt Q92830); assay: Competition NanoBRET on full-length GCN5-Nluc with MS-1 in HEK293T cells; type: cell-based
T5 construct: The C-terminal full-length GCN5-Nluc construct was titrated against MS-1; host or cells: HEK293T
Description: HEK293T Cell Culture and Transfection
as §1, §2, §3
General NanoBRET Assay Protocol […]
BPTF-BRD BRET assays were conducted using a final MS-1 concentration of 0.5 μM, and PCAF, GCN5, and CECR2 used a final MS-1 concentration of 1 μM. […] BRET was then measured in a Tecan Spark plate reader following a 30 second orbital shake with an amplitude of 1 mm and frequency of 510 rpm.
as §5

[12] = target: PCAF; design: method as in PMID 27966810; details: read-out: literature Kd; cited from earlier work
[13] = target: class I bromodomains PCAF, GCN5, and CECR2; design: method as in PMID 34515477; details: off-target activity; read-out: affinities for the other class I bromodomains; cited from earlier work
[14] = target: T2, BPTF-BRD-Nluc; assay: NanoBRET tracer titration against BPTF-BRD-Nluc in HEK293T cells; type: cell-based; details: for EC50: tracer titrated against BPTF-BRD-Nluc, HEK293T cells, n=2
[15] = target: T3, BPTF-BRD; assay: Kinetic NanoBRET measurement of tracer kon, koff and Kd with the BPTF-BRD; type: cell-based
Description: Figure 3. A) Tracer titration plots against BPTF-BRD-Nluc in HEK293T cells and their EC50 values. *second replicate EC50 could not be determined due to an incomplete curve. B) Kinetics data with MS-1 at varying concentrations over 25 minutes (truncated from 1 hour). C) Linear plot of kobs values at each concentration of MS-1. The kon and koff values were determined from the linear fit equation and were used to calculate the Kd. D) BI-7190 titration plots at various MS-1 concentrations to determine ideal assay window. EC50 values of BI-7190 are reported at various MS-1 concentrations. All graphical data represents mean ± standard deviation where A, B, and C are technical duplicates with n=2, and D is reported as a technical duplicate with n=3. […] (μM) of the same panel. / Panel D: the concentration row of the table is headed [BI-7190] as printed; it is unclear whether 2, 1, 0.5 and 0.25 μM are concentrations of BI-7190 or of another substance.
Before testing inhibitors, the Kd value of the tracer with the BPTF-BRD was measured kinetically by determining the kon and koff rates of the NanoBRET tracer. The Kd of the tracer enables the conversion of EC50 values to apparent Ki values. Varying concentrations of MS-1 were dosed, and measurements were taken every 35 seconds over the course of one hour (Figure 3B). The association of MS-1 with the BPTF-BRD was fast (~ 15 minutes). Data was fit using one-phase association and kobs values were determined for each concentration. […] This affinity is within two-fold of the EC50 derived for MS-1, indicating good cell permeability of the tracer. Additionally, this moderate affinity is an ideal range for future competition experiments.

[16] = BRET EC50, BPTF-BRD-Nluc, 0.5 μM MS-1, HEK293T cells, n=2

T4 sequence (Q92831 whole entry): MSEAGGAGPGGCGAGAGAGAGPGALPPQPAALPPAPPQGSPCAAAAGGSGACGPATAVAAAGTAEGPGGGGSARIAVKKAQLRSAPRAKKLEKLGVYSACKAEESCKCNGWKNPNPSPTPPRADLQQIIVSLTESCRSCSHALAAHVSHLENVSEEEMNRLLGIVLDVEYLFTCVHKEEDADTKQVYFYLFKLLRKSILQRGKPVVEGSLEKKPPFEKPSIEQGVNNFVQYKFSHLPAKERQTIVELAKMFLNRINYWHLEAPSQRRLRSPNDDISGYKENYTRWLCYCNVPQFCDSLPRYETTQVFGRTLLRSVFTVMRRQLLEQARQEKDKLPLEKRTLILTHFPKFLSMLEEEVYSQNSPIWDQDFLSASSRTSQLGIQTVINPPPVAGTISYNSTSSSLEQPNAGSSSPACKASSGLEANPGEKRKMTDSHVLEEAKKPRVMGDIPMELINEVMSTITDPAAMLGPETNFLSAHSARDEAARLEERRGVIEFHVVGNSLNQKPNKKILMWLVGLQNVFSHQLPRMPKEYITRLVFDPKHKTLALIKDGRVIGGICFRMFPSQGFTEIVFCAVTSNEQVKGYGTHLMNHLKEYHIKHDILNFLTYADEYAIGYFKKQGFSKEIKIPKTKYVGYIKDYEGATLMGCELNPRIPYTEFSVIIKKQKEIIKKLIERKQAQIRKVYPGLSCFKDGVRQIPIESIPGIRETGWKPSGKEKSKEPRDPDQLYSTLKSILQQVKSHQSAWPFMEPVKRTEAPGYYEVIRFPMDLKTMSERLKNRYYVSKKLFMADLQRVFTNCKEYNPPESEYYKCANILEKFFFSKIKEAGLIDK
T1 sequence (Q9BXF3 whole entry): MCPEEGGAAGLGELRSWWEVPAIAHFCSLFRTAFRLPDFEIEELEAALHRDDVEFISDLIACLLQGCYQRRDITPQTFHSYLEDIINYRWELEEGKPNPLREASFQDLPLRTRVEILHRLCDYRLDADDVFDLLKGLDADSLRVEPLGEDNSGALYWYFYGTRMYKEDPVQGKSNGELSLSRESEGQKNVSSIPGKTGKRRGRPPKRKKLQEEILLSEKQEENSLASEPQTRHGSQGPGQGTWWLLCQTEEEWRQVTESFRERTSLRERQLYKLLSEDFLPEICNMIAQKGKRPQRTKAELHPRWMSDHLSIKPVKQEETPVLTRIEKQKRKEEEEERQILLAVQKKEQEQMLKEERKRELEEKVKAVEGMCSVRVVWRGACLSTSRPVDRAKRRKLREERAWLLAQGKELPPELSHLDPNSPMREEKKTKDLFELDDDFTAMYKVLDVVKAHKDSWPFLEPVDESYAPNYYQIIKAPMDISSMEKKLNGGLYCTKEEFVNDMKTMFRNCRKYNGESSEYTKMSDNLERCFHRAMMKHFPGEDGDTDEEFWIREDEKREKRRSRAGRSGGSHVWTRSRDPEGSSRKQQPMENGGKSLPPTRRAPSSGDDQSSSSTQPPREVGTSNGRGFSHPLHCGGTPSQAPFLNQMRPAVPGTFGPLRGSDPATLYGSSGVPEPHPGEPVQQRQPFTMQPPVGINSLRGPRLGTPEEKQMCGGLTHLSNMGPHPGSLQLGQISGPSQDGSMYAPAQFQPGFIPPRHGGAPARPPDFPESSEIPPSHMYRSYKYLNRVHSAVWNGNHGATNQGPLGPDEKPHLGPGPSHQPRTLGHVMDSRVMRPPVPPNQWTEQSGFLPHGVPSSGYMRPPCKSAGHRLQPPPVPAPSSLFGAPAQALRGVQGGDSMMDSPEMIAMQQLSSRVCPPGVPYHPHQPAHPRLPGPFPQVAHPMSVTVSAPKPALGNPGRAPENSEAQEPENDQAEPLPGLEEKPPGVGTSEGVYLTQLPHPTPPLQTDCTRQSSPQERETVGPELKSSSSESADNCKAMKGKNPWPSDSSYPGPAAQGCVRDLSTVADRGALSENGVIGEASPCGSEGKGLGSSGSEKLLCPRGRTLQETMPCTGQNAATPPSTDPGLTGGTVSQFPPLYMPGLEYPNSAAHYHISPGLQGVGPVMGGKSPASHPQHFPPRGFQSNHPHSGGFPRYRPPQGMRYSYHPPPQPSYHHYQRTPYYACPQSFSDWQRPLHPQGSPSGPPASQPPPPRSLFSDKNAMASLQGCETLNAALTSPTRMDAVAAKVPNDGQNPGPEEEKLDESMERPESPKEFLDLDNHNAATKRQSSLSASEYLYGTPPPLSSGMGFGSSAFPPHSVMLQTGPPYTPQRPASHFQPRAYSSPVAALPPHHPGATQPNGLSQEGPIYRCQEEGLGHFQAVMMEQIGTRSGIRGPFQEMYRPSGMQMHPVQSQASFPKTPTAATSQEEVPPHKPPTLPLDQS
T5 sequence (Q92830 whole entry): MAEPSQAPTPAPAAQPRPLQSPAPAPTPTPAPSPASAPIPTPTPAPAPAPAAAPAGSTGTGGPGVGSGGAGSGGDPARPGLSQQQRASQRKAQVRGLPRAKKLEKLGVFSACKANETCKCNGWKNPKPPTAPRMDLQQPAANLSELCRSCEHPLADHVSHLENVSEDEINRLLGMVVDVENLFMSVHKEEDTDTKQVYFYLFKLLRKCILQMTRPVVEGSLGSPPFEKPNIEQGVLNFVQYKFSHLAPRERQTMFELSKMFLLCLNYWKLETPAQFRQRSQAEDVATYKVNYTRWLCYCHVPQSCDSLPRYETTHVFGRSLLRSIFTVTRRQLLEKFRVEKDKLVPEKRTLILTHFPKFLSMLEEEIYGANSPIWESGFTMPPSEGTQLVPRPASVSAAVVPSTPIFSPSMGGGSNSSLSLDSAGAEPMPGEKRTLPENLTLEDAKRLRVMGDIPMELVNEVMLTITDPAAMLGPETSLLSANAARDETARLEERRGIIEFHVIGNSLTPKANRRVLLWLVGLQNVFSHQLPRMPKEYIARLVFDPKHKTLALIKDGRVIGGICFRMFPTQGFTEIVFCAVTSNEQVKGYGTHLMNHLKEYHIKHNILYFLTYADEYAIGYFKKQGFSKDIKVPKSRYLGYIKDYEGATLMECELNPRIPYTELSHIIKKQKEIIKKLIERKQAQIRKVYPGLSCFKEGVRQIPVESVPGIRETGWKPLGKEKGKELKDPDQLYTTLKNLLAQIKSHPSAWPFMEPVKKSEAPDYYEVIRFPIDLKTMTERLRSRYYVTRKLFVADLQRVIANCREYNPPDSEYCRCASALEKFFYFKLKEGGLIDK

- EC50 ([1]; Nluc-CECR2, n=2, MS-1 1 μM in text and SI, 0.5 μM in Figure 6 legend, read-out: BRET EC50): 620 ± 60 nM
- EC50 [3, 16]: 1200 ± 100 nM
Compound: CN(C)CCCOc1ccc(-c2cc(NCCCn3cccn3)nc(S(C)(=O)=O)n2)cc1 [TP-238]
- Caco-2 or PAMPA: PAMPA [2]: 28 10^-6 cm/s

- EC50 [3, 16]: 450 ± 20 nM
Compound: CN(C)CCCn1ccc2cc(-c3nc(S(C)(=O)=O)nc4[nH]ccc34)ccc21 [DC-BPi-11]

- EC50 [3, 16]: 66 ± 3 nM
- EC50 ([3]; EC50, printed [BI-7190]: 0.25 μM (MS-1 concentration per legend), n=3): 70 ± 10 nM
- EC50 ([3]; EC50, printed [BI-7190]: 0.5 μM (MS-1 concentration per legend), n=3): 100 ± 10 nM
- EC50 ([3]; EC50, printed [BI-7190]: 1 μM (MS-1 concentration per legend), n=3): 160 ± 20 nM
- EC50 ([3]; EC50, printed [BI-7190]: 2 μM (MS-1 concentration per legend), n=3): 200 ± 10 nM
Compound: COc1cc(-c2cn(C)c(=O)c(C)c2C)ccc1C1(N2CCN(C)CC2)CC1 [BI-7190]
- Caco-2 or PAMPA: Caco-2 [4]: 21 10^-6 cm/s
- Kd [5]: 85 nM
- EC50 [6]: 58 nM

- inhibition of the BPTF-BRD in NanoBRET titration [3]: neither showed full inhibition
Compound: COC(=O)c1cccc(NC(=O)NC2CCN(c3ccnc(Nc4ccc(F)cc4)n3)C2)c1 (racemic) [AU1 (Rac)]

- EC50 [3, 16]: 400 ± 50 nM
Compound: Cc1c(Nc2ccc(S(=O)(=O)N3CCN(C)CC3)cc2F)nc2ccc(-c3cnn(C4CC4)c3)cn2c1=O [NVS-BPTF-1]
- Caco-2 or PAMPA: PAMPA [2]: 16 10^-6 cm/s
- solubility [7]: poor solubility

Compound: CN1CCc2cc(Nc3ncn(C)c(=O)c3Cl)ccc2C1 [compound 5]
- fold lower affinity in vitro ([8]; compound 5 compared with compound 4, AlphaScreen IC50): 2.5 fold
- IC50 [8]: 660 ± 40 nM
- Papp at 2 h, 10 μmol/L [9]: 70 ± 80 ×10⁻⁶ cm/s
- EC50 [3, 16]: 1400 ± 200 nM
- fold lower affinity in cells ([3]; compound 5 compared with compound 4, NanoBRET EC50): 1.5 fold

- EC50 ([10]; PCAF-Nluc, 1 μM MS-1, n=2, read-out: BRET EC50): 280 ± 50 nM
- EC50 ([11]; GCN5-Nluc, 1 μM MS-1, n=2, read-out: BRET EC50): 500 ± 60 nM
Compound: Cc1nnc2c3ccccc3c(N[C@@H](C)[C@H](c3ccccc3)N(C)C)nn12 [L-Moses, reference compound]
- Kd [12]: 126 nM

Compound: Cn1ncc(Nc2ccc(CCN)cc2)c(Cl)c1=O [BZ1]
- Caco-2 or PAMPA: Caco-2 [4]: 0.9 ± 5 10^-6 cm/s
- Kd [13]: 11 to 44 nM

Compound: CN1CCc2cc(Nc3cnn(C)c(=O)c3Cl)ccc2C1 [compound 4]
- IC50 [8]: 260 nM
- Papp at 2 h, 10 μmol/L [9]: 47 ± 20 ×10⁻⁶ cm/s
- EC50 [3, 16]: 900 ± 200 nM

- IC50 [8]: 2100 nM
- EC50 [3, 16]: 4000 ± 300 nM
Compound: CN1CCc2ccc(Nc3cnn(C)c(=O)c3Cl)cc2C1 [compound 6]

- competition of tracer by compound 4 (non-specific interactions) ([14]; BPTF-BRD-Nluc, 25X molar excess of 4 (100 μM)): largely competed away
- EC50 [14]: 600 ± 100 nM
- assay window ([14]; tracer titration, BPTF-BRD-Nluc construct): 60 mBu
- koff ([15]; linear fit of kobs vs [MS-1]): 0.00181 ± 3e-05 s⁻¹
- kon ([15]; linear fit of kobs vs [MS-1]): 1800 ± 400 M⁻¹ s⁻¹
- Kd ([15]; measured kinetically, calculated from kon and koff): 1100 ± 300 nM
- association with the BPTF-BRD (time) ([15]; measurements every 35 seconds over one hour): ~ 15 minutes
- assay window ([10]; 1 μM MS-1, PCAF-Nluc): ~20 mBu
- competition of tracer by compound 4 (non-specific interactions) ([10]; PCAF-Nluc, 4 at 100 μM): competed away
- assay window ([11]; 1 μM MS-1, GCN5-Nluc): ~20 mBu
- competition of tracer by compound 4 (non-specific interactions) ([11]; GCN5-Nluc, 4 at 100 μM): competed away
- assay window ([1]; 1 μM MS-1, Nluc-CECR2): around 20 mBu
- competition of tracer by compound 4 (non-specific interactions) ([1]; Nluc-CECR2, 4 at 100 μM): less-efficient competition
- assay window ([3]; 0.5 μM MS-1, BPTF-BRD-Nluc): ~30 mBu
Compound: Cn1ncc(Nc2ccc3c(c2)CCN(CCCCNC(=O)CCc2ccc4n2[B-](F)(F)[N+]2=C(c5ccc[nH]5)C=CC2=C4)C3)c(Cl)c1=O [MS-1]

- inhibition of the BPTF-BRD in NanoBRET titration [3]: neither showed full inhibition
Compound: COC(=O)c1cccc(NC(=O)N[C@H]2CCN(c3ccnc(Nc4ccc(F)cc4)n3)C2)c1 [S-AU1]

- EC50 [14]: 3700 nM
Compound: Cn1ncc(Nc2ccc3c(c2)CCN(CCCCNC(=O)CCOCCOCCOCCOCCNC(=O)CCc2ccc4n2[B-](F)(F)[N+]2=C(c5ccc[nH]5)C=CC2=C4)C3)c(Cl)c1=O [MS-3]

- EC50 [14]: 3300 ± 100 nM
Compound: Cn1ncc(Nc2ccc3c(c2)CCN(CCCCNC(=O)CCCNC(=O)CCc2ccc4n2[B-](F)(F)[N+]2=C(c5ccc[nH]5)C=CC2=C4)C3)c(Cl)c1=O [MS-2]
